The assay addresses T1, STAT6 (Homo sapiens, UniProt P42226).
T1 construct: stably transfected HaCaT keratinocyte cell line, which expresses NanoLuc luciferase reporter gene under the transcriptional control of the STAT6 responsive promoter; endogenous in cells; host or cells: HaCaT keratinocyte reporter cell line (stably transfected with a NanoLuc reporter)
T1 sequence (P42226 1-847): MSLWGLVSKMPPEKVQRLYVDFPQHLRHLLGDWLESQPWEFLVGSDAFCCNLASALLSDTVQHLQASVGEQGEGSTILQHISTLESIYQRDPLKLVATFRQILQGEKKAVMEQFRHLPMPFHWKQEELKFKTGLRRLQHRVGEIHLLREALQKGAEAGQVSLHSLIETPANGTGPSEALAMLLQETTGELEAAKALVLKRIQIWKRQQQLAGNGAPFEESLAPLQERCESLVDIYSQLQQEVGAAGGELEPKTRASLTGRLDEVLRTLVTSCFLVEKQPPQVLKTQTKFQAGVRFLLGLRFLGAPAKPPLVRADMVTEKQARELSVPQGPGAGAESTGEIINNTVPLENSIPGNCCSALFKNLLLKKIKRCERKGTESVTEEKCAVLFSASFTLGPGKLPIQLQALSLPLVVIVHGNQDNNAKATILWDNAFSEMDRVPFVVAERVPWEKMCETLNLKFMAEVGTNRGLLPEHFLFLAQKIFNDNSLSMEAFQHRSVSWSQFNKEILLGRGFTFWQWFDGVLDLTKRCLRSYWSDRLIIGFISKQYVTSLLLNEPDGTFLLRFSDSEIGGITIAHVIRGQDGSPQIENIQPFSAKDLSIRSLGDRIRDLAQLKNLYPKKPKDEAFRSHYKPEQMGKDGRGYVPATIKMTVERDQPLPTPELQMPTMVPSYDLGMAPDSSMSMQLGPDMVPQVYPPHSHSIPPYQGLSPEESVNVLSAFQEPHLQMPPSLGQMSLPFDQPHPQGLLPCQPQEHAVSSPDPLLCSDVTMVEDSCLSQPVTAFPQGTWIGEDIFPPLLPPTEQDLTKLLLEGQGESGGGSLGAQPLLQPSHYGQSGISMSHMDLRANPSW
Kind of assay: STAT6 Reporter Luciferase Assay (IL-13 stimulated HaCaT keratinocyte NanoLuc reporter cells). It is filed as cell-based. The settings on record: IL-13 stimulated HaCaT STAT6 NanoLuc reporter cells; read-out: Reporter EC50. An outline of the steps:
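Compounds were tested as 11-point, 4-fold series in duplicate, applied for 2 h at 37 °C in low-serum (2% FBS) DMEM. The cells were a stable HaCaT line with NanoLuc under a STAT6-responsive IL-13Ra2 promoter. After 4 h with 0.12 nM IL-13, Nano-Glo luminescence was measured.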
For the molecule `CC(C)n1nc(C(=O)NCc2ccc(NC(=O)N(C)C)cc2)c2c1CCN(c1ccc(C(=O)N3CCc4ccc(C#N)cc4C3)cn1)C2` [Example 422, 5-(5-(7-cyano-1,2,3,4-tetrahydroisoquinoline-2-carbonyl)pyridin-2-yl)-N-(4-(3,3-dimethylureido)benzyl)-1-isopropyl-4,5,6,7-tetrahydro-1H-pyrazolo[4,3-c]pyridine-3-carboxamide], the EC50 (as a rule, the concentration at which the effect is half-maximal) was 19 nM.
Under `CC(=O)N[C@@H]1CCN(C(=O)c2ccc(N3CCc4c(c(C(=O)NCc5ccc(NC(=O)N(C)C)cc5)nn4C(C)C)C3)nc2)C1` [Example 211, (R)-5-(5-(3-acetamidopyrrolidine-1-carbonyl)pyridin-2-yl)-N-(4-(3,3-dimethylureido)benzyl)-1-isopropyl-4,5,6,7-tetrahydro-1H-pyrazolo[4,3-c]pyridine-3-carboxamide] stands 934 nM; under `CC(C)n1nc(C(=O)NCc2ccc(NC(=O)N(C)C)cc2)c2c1CCN(c1ccc(C(=O)N3CCc4ncncc4C3)cn1)C2` [Example 379, N-(4-(3,3-dimethylureido)benzyl)-1-isopropyl-5-(5-(5,6,7,8-tetrahydropyrido[4,3-d]pyrimidine-6-carbonyl)pyridin-2-yl)-4,5,6,7-tetrahydro-1H-pyrazolo[4,3-c]pyridine-3-carboxamide], 70 nM; under `CC(C)n1nc(C(=O)NCc2ccc(NC(=O)N3CC4(CCCN(C)C4)C3)c(F)c2)c2c1[C@@H](C)CN(c1ccc(C(=O)N(C)C)cc1)C2` [Example 646, (S)-5-(4-(dimethylcarbamoyl)phenyl)-N-(3-fluoro-4-(6-methyl-2,6-diazaspiro[3.5]nonane-2-carboxamido)benzyl)-1-isopropyl-7-methyl-4,5,6,7-tetrahydro-1H-pyrazolo[4,3-c]pyridine-3-carboxamide], 1 nM.
Under `CC(C)n1nc(C(=O)NCc2ccc(NC(=O)N3CCC4(CCCN(C)C4)CC3)c(F)c2)c2c1[C@@H](C)CN(c1ccc(C(=O)N(C)C)cc1)C2` [Example 644, (S)-N-(4-((5-(4-(dimethylcarbamoyl)phenyl)-1-isopropyl-7-methyl-4,5,6,7-tetrahydro-1H-pyrazolo[4,3-c]pyridine-3-carboxamido)methyl)-2-fluorophenyl)-2-methyl-2,9-diazaspiro[5.5]undecane-9-carboxamide] stands 1 nM.
Then `COCC1(N)CCN(C(=O)Nc2ccc(CNC(=O)c3nn(C(C)C)c4c3CN(c3ccc(C(=O)N(C)C)cc3)C[C@@H]4C)cc2)C1` (single isomer, unassigned) [Example 672, (S)-N-(4-((R*)-3-amino-3-(methoxymethyl)pyrrolidine-1-carboxamido)benzyl)-5-(4-(dimethylcarbamoyl)phenyl)-1-isopropyl-7-methyl-4,5,6,7-tetrahydro-1H-pyrazolo[4,3-c]pyridine-3-carboxamide], with 1 nM; and `CC(C)n1nc(C(=O)NCc2ccc(NC(=O)N(C)C)cc2)c2c1CCN(c1ccc(C(=O)N3CCc4oncc4C3)cn1)C2` [Example 432, N-(4-(3,3-dimethylureido)benzyl)-1-isopropyl-5-(5-(4,5,6,7-tetrahydroisoxazolo[4,5-c]pyridine-5-carbonyl)pyridin-2-yl)-4,5,6,7-tetrahydro-1H-pyrazolo[4,3-c]pyridine-3-carboxamide], with 186 nM; and `CC(C)n1nc(C(=O)NCc2ccc(NC(=O)N3CC[C@@H](N(C)C)C3)cc2)c2c1[C@@H](C)CN(c1ccc(C(=O)N(C)C)cc1)C2` [Example 750, (S)-N-(4-((R)-3-(dimethylamino)pyrrolidine-1-carboxamido)benzyl)-5-(4-(dimethylcarbamoyl)phenyl)-1-isopropyl-7-methyl-4,5,6,7-tetrahydro-1H-pyrazolo[4,3-c]pyridine-3-carboxamide], with 1 nM.
On to `CCn1nc(C(=O)NCc2ccc(NC(=O)N3CCN(C)CC3)cc2)c2c1C(C(F)(F)F)CN(c1ccc(C(=O)N(C)C)cn1)C2` (single isomer, unassigned) [Example 694, rel-(R or S)-5-(5-(dimethylcarbamoyl)pyridin-2-yl)-1-ethyl-N-(4-(4-methylpiperazine-1-carboxamido)benzyl)-7-(trifluoromethyl)-4,5,6,7-tetrahydro-1H-pyrazolo[4,3-c]pyridine-3-carboxamide], for which the EC50 came to 0.3 nM.
On to `CC(C)n1nc(C(=O)NCc2ccc(NC(=O)N(C)C)cc2)c2c1CCN(c1ccc(C(=O)N3C[C@@H]4CCO[C@@H]4C3)cn1)C2` [Example 241, N-(4-(3,3-dimethylureido)benzyl)-5-(5-((3aS,6aS)-hexahydro-2H-furo[2,3-c]pyrrole-5-carbonyl)pyridin-2-yl)-1-isopropyl-4,5,6,7-tetrahydro-1H-pyrazolo[4,3-c]pyridine-3-carboxamide], for which the EC50 came out at 330 nM.
Then `Cc1nn(C)c(=O)n1-c1ccc(N2Cc3c(C(=O)NCc4ccc(NC(=O)N5CCN(C)CC5)cc4)nn(C(C)C)c3[C@@H](C)C2)nc1` [Example 613, (S)-5-(5-(1,3-dimethyl-5-oxo-1,5-dihydro-4H-1,2,4-triazol-4-yl)pyridin-2-yl)-1-isopropyl-7-methyl-N-(4-(4-methylpiperazine-1-carboxamido)benzyl)-4,5,6,7-tetrahydro-1H-pyrazolo[4,3-c]pyridine-3-carboxamide], with 3 nM; and `CC(C)n1nc(C(=O)NCc2ccc(NC(=O)N(C)C)cc2)c2c1CCN(c1ccc(C(=O)N3CC4(CCO4)C3)cn1)C2` [Example 326, 5-(5-(1-oxa-6-azaspiro[3.3]heptane-6-carbonyl)pyridin-2-yl)-N-(4-(3,3-dimethylureido)benzyl)-1-isopropyl-4,5,6,7-tetrahydro-1H-pyrazolo[4,3-c]pyridine-3-carboxamide], with 1280 nM.
Then `CC(C)n1nc(C(=O)NCc2ccc(NC(=O)N(C)C)cc2)c2c1CCN(c1ccc(C(=O)N3CCc4scnc4C3)cn1)C2` [Example 403, N-(4-(3,3-dimethylureido)benzyl)-1-isopropyl-5-(5-(4,5,6,7-tetrahydrothiazolo[4,5-c]pyridine-5-carbonyl)pyridin-2-yl)-4,5,6,7-tetrahydro-1H-pyrazolo[4,3-c]pyridine-3-carboxamide], with 12 nM; and `CC(=O)N1[C@H](C)CN(C(=O)c2ccc(N3CCc4c(c(C(=O)NCc5ccc(NC(=O)N(C)C)cc5)nn4C(C)C)C3)nc2)C[C@@H]1C` [Example 299, 5-(5-((3S,5R)-4-acetyl-3,5-dimethylpiperazine-1-carbonyl)pyridin-2-yl)-N-(4-(3,3-dimethylureido)benzyl)-1-isopropyl-4,5,6,7-tetrahydro-1H-pyrazolo[4,3-c]pyridine-3-carboxamide], with 241 nM; and `COC1CCN(C(=O)c2ccc(N3CCc4c(c(C(=O)NCc5ccc(NC(=O)N(C)C)cc5)nn4C(C)C)C3)nc2)CC1` [Example 199, N-(4-(3,3-dimethylureido)benzyl)-1-isopropyl-5-(5-(4-methoxypiperidine-1-carbonyl)pyridin-2-yl)-4,5,6,7-tetrahydro-1H-pyrazolo[4,3-c]pyridine-3-carboxamide], with 125 nM.
Take `CC(C)n1nc(C(=O)NCc2ccc(NC(=O)N3CCN(C)CC3)cc2)c2c1[C@@H](C)CN(c1ccc(-c3nncn3C)cn1)C2` [Example 658, (S)-1-isopropyl-7-methyl-5-(5-(4-methyl-4H-1,2,4-triazol-3-yl)pyridin-2-yl)-N-(4-(4-methylpiperazine-1-carboxamido)benzyl)-4,5,6,7-tetrahydro-1H-pyrazolo[4,3-c]pyridine-3-carboxamide]: the EC50 was determined as 4 nM.
Then `CC(C)n1nc(C(=O)NCc2ccc(NC(=O)N(C)C)cc2)c2c1CCN(c1ccc(C(=O)N3CCNC(=O)CC3)cn1)C2` [Example 214, N-(4-(3,3-dimethylureido)benzyl)-1-isopropyl-5-(5-(5-oxo-1,4-diazepane-1-carbonyl)pyridin-2-yl)-4,5,6,7-tetrahydro-1H-pyrazolo[4,3-c]pyridine-3-carboxamide], with 502 nM; and `Cc1nc2c(n1C)CCN(C(=O)c1ccc(N3CCc4c(c(C(=O)NCc5ccc(NC(=O)N(C)C)cc5)nn4C(C)C)C3)nc1)C2` [Example 409, 5-(5-(1,2-dimethyl-4,5,6,7-tetrahydro-1H-imidazo[4,5-c]pyridine-5-carbonyl)pyridin-2-yl)-N-(4-(3,3-dimethylureido)benzyl)-1-isopropyl-4,5,6,7-tetrahydro-1H-pyrazolo[4,3-c]pyridine-3-carboxamide], with 24 nM.

These data come from patent US20250320213A1, “Nitrogen-Containing Heterocyclic Compounds” (Pfizer Inc., priority 2024, published 2025).
